Several values for one entry are separate records, joined by “and”; a condition that tells them apart may be missing. Identical values can stand only once.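 Results reflect a 48-hour exposure of cells in 96-well plates to compound at five concentrations. At the GI50, growth is halved. TGI marks complete inhibition of growth.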 Where a SMILES comes first, the peptide text is derived from it. [ ]: non-standard residue; d: D form. The star is where a group is joined. ξ: configuration not given here. NMeN = CN[C@@H](CC(N)=O)C(=O)O; NMeV = CN[C@H](C(=O)O)C(C)C; ξNMeV = CNC(C(=O)O)C(C)C; Boc = CC(C)(C)OC(=O)*; ξNMeA = CNC(C)C(=O)O
Columns and labels:
Experiment in all cases: NCI-60 cell line screen, 48 h
SN12C renal = test system: SN12C renal
U251 CNS = test system: U251 CNS
HOP-62 NSCLC = test system: HOP-62 NSCLC
UO-31 renal = test system: UO-31 renal
KM12 colon = test system: KM12 colon
RXF 393 renal = test system: RXF 393 renal
MALME-3M melanoma = test system: MALME-3M melanoma
SNB-19 CNS = test system: SNB-19 CNS
K-562 leukemia = test system: K-562 leukemia
CAKI-1 renal = test system: CAKI-1 renal

Compound | GI50 (SN12C renal) | TGI (SN12C renal) | GI50 (U251 CNS) | TGI (U251 CNS) | GI50 (HOP-62 NSCLC) | TGI (HOP-62 NSCLC) | GI50 (UO-31 renal) | TGI (UO-31 renal) | GI50 (KM12 colon) | TGI (KM12 colon) | GI50 (RXF 393 renal) | TGI (RXF 393 renal) | GI50 (MALME-3M melanoma) | TGI (MALME-3M melanoma) | GI50 (SNB-19 CNS) | TGI (SNB-19 CNS) | GI50 (K-562 leukemia) | TGI (K-562 leukemia) | GI50 (CAKI-1 renal) | TGI (CAKI-1 renal)
C=C1C(=O)[C@@]23CC1C(O)[C@@H](OC(C)=O)[C@@H]2C1(C)C(OC(C)=O)C[C@@H](OC(C)=O)C(C)(C)[C@@H]1C[C@H]3OC(C)=O (stereo partly drawn) | 5.5 µg/mL | > 10 µM and 17 µg/mL | > 10 µM and 13.9 µg/mL | > 10 µM and 27 µg/mL | 19.2 µg/mL | > 10 µM and 34.9 µg/mL | > 10 µM and 6.65 µg/mL | > 10 µM and 16.3 µg/mL | > 10 µM and 5.94 µg/mL | > 10 µM and 17.1 µg/mL | 362 nM and 1.8 µg/mL | 4.21 µM and 5.35 µg/mL | 1.57 µM and 1.72 µg/mL | 3.3 µM and 3.14 µg/mL | > 10 µM and 17.2 µg/mL | > 10 µM and 31.1 µg/mL | 1.55 µM and 0.573 µg/mL | 3.71 µM and 2.86 µg/mL | 3.03 µg/mL | > 10 µM and 8.66 µg/mL
COC(=O)C(C)N(C)C(=O)[C@H](CC(N)=O)N(C)C(=O)[C@@H]1CCCN1C(=O)[C@H](C(C)C)N(C)C(=O)C(C(C)C)N(C)C(=O)[C@@H](NC(=O)OC(C)(C)C)C(C)C (stereo partly drawn) (Boc-V[ξNMeV][NMeV]P[NMeN][ξNMeA]-OMe) | > 100 µM | > 100 µM | > 100 µM | > 100 µM | > 100 µM | > 100 µM | > 100 µM | 50 µM and > 100 µM | – | > 100 µM | 32.6 µM | > 50 µM and 96.8 µM | – | > 100 µM | > 100 µM | > 100 µM | > 100 µM | 50 µM and > 100 µM | > 100 µM | > 100 µM
CCN(CC)CCNC(=O)c1nn(C)c(=S)[nH]c1=S | – | > 100 µM | – | > 100 µM | – | > 100 µM | – | > 100 µM | – | > 100 µM | – | > 100 µM | – | > 100 µM | – | > 100 µM | – | > 100 µM | – | > 100 µM
O=P([O-])(O)OP(=O)([O-])O.[NH-][C@@H]1CCCC[C@H]1[NH-].[Pt+4] | 17.6 µM and 8.78 µM | > 100 µM | 42.4 µM and 8.27 µM | > 100 µM | > 95.5 µM and 13.2 µM | > 100 µM | 32.2 µM and 4.83 µM | > 100 µM and 30.5 µM | 50.8 µM and 24 µM | > 100 µM | 41.7 µM and 13.6 µM | > 100 µM | 11.7 µM and 2.98 µM | > 100 µM and 29 µM | 47.9 µM and 14.9 µM | > 100 µM | 26.1 µM and 4.09 µM | > 100 µM | 6.41 µM and 5.25 µM | > 100 µM and 41.7 µM
C1CCN(C2OC3C(COC3N3CCCCC3)OC2OC2CCO[C@@H]2N2CCCCC2)CC1 (stereo partly drawn) | – | > 100 µM | – | > 100 µM | – | > 100 µM | – | > 100 µM | – | > 100 µM | – | 27.5 µM | – | 83.2 µM | – | > 100 µM | – | > 100 µM | – | > 100 µM
CC/C(=C(/CC)c1ccc(O)cc1)c1ccc([O-])cc1.CC/C(=C(/CC)c1ccc(O)cc1)c1ccc([O-])cc1.O=C([CH-]C(=O)c1ccccc1)c1ccccc1.O=C([CH-]C(=O)c1ccccc1)c1ccccc1.[Ti+4] | 14 µM | 26.9 µM | 13.9 µM | 26.9 µM | 14.7 µM | 28.3 µM | 21.8 µM | 38.6 µM | 12.5 µM | 35.1 µM | 10.7 µM | 25.7 µM | 7.53 µM | 20.3 µM | 14.7 µM | 27.8 µM | 3.51 µM | > 100 µM | 16.3 µM | 61 µM
COC(=O)C12C3C4C5C3(C#N)C1C5(C(=O)OC)C42C(=O)N(C(C)C)C(C)C (stereo not drawn) | – | > 100 µM | – | > 100 µM | – | > 100 µM | – | > 100 µM | – | > 100 µM | – | > 100 µM | – | > 100 µM | – | > 100 µM | – | > 73.8 µM | – | > 100 µM
CCOC(=O)C1=C(Nc2ccc(Cl)cc2Cl)OC/C1=N\NS(=O)(=O)c1ccc(C)cc1 | – | > 100 µM | – | > 100 µM | – | > 100 µM | – | > 100 µM | – | > 100 µM | – | > 100 µM | – | > 100 µM | – | > 100 µM | – | > 100 µM | – | > 100 µM
COc1ccc(C2=C(c3ccc(OC)c(OC)c3)C(=O)OC2)cc1 | 0.123 µM | > 82.1 µM | < 0.01 µM | > 59.6 µM | < 0.01 µM | – | 0.116 µM | > 85.9 µM | – | 3.34 µM | 0.0792 µM | > 100 µM | – | > 81 µM | 0.263 µM | > 100 µM | < 0.01 µM | – | – | 4.89 µM
CCCCc1ccc(-n2c3nc(=O)n(C)c(=O)c-3nc3ccccc32)cc1 | – | 20.9 µM | – | 23.5 µM | – | 32.6 µM | – | 25.1 µM | – | 26.6 µM | – | 34.1 µM | – | 19.7 µM | – | 21.2 µM | – | 33.6 µM | – | 54.5 µM
NC1CCCCC1N.O=S(=O)([O-])CCCN1CCOCC1.O=S(=O)([O-])CCCN1CCOCC1.[Pt+4] | 10.7 µM | > 100 µM | 13.7 µM | > 100 µM | > 100 µM | > 100 µM | 19.3 µM | > 100 µM | 35.1 µM | > 100 µM | > 49.4 µM | > 100 µM | 5.23 µM | 22.5 µM | 25.7 µM | > 100 µM | 7.29 µM | 30.5 µM | 5.01 µM | > 85.8 µM
